Reference: ChEMBL document CHEMBL6096697, “Structure-Guided Discovery of Novel N4-(Substituted Thiazol-2-yl)-N2-(4-Substituted phenyl)pyrimidine-2,4-Diamines as Potent CDK2 and CDK9 Dual Inhibitors with High Oral Bioavailability” (J Med Chem, 2025)

Biological target: CDK9/cyclin T1 (Homo sapiens) (UniProt O60563+P50750)
Test: Inhibition of CDK9/cyclin T (unknown origin) using […] at 1 uM incubated for 40 mins in presence of ATP by Kinase-Glo assay relative to control
Assay type: protein-complex assay
Details: not given

Row | Compound | inhibition [%]
1 | NS(=O)(=O)c1ccc(Nc2ncc(F)c(Nc3nc(-c4ccc(F)cc4)cs3)n2)cc1 | 41
2 | NS(=O)(=O)c1ccc(Nc2ncc(F)c(Nc3nc(C4CC4)cs3)n2)cc1 | 51
3 | CC(C)c1csc(Nc2ccnc(Nc3ccc(S(N)(=O)=O)cc3)n2)n1 | 81
4 | Cc1cnc(Nc2ccnc(Nc3ccc(S(N)(=O)=O)cc3)n2)s1 | 29
5 | CCOC(=O)c1sc(Nc2nc(Nc3ccc(S(N)(=O)=O)cc3)ncc2F)nc1C | 69
6 | Cc1cnc(Nc2nc(Nc3ccc(S(N)(=O)=O)cc3)ncc2F)s1 | 66
7 | NS(=O)(=O)c1ccc(Nc2nccc(Nc3nc(-c4ccc(F)cc4)cs3)n2)cc1 | 65

Other lines, results leading:

Row | inhibition [%] | Compound
8 | 46 | COCCNS(=O)(=O)c1ccc(Nc2ncc(C)c(Nc3nccs3)n2)cc1
9 | 84 | COC(=O)c1sc(Nc2nc(Nc3ccc(S(N)(=O)=O)cc3)ncc2C)nc1C

Biological target: Cyclin-dependent kinase 2/cyclin A (Homo sapiens, UniProt P24941)
Test: Inhibition of CDK2/cyclin A (unknown origin) using […] incubated for 40 mins in presence of ATP by Kinase-Glo assay
Assay type: protein-complex assay
Details: not given

Row | Compound | IC50 [nM]
10 | NS(=O)(=O)c1ccc(Nc2nccc(Nc3ncc([N+](=O)[O-])s3)n2)cc1 | 38
11 | COc1ccc(Nc2nccc(Nc3nccs3)n2)cc1 | 910
12 | CCOC(=O)CNc1ccnc(Nc2ccc(OC)cc2)n1 | 4090
13 | NS(=O)(=O)c1ccc(Nc2ncc(F)c(Nc3nc(-c4ccc(F)cc4)cs3)n2)cc1 | 23
14 | NS(=O)(=O)c1ccc(Nc2ncc(F)c(Nc3nc(C4CC4)cs3)n2)cc1 | 11
15 | CC(C)c1csc(Nc2ccnc(Nc3ccc(S(N)(=O)=O)cc3)n2)n1 | 27
16 | NS(=O)(=O)c1ccc(Nc2nccc(Nc3nc(C4CC4)cs3)n2)cc1 | 16
17 | CC(C)c1csc(Nc2nc(Nc3ccc(S(N)(=O)=O)cc3)ncc2F)n1 | 8
18 | Cc1cnc(Nc2ccc(S(N)(=O)=O)cc2)nc1Nc1nc(-c2ccc(F)cc2)cs1 | 32
19 | Cc1cnc(Nc2ccnc(Nc3ccc(S(N)(=O)=O)cc3)n2)s1 | 5
20 | CCOC(=O)c1sc(Nc2nc(Nc3ccc(S(N)(=O)=O)cc3)ncc2F)nc1C | 470
21 | Cc1cnc(Nc2nc(Nc3ccc(S(N)(=O)=O)cc3)ncc2F)s1 | 12
22 | NS(=O)(=O)c1ccc(Nc2nccc(Nc3nc(-c4ccc(F)cc4)cs3)n2)cc1 | 110

Further lines, results first:

Row | IC50 [nM] | Compound
23 | 5 | Cc1cnc(Nc2ccc(S(N)(=O)=O)cc2)nc1Nc1nc(C2CC2)cs1
24 | 112 | COc1cnc(Nc2ccc(S(N)(=O)=O)cc2)nc1Nc1nccs1
25 | 43 | COCCNS(=O)(=O)c1ccc(Nc2ncc(C)c(Nc3nccs3)n2)cc1
26 | 52 | NS(=O)(=O)c1ccc(Nc2nccc(Nc3nccs3)n2)cc1
27 | 110 | CS(=O)(=O)c1ccc(Nc2nccc(Nc3nccs3)n2)cc1
28 | 10 | NS(=O)(=O)c1ccc(Nc2ncc(F)c(Nc3nccs3)n2)cc1
29 | 11 | Cc1cnc(Nc2ccc(S(N)(=O)=O)cc2)nc1Nc1nc(C(C)C)cs1
30 | 53 | COC(=O)c1sc(Nc2nc(Nc3ccc(S(N)(=O)=O)cc3)ncc2C)nc1C
31 | 10 | Cc1csc(Nc2nc(Nc3ccc(S(N)(=O)=O)cc3)ncc2C)n1
32 | 55 | Cc1cnc(Nc2ccc(S(C)(=O)=O)cc2)nc1Nc1nccs1

Biological target: not listed separately
Test: Inhibition of CDK9/cyclin T (unknown origin) using […] incubated for 40 mins in presence of ATP by Kinase-Glo assay
Set-up: species or system Homo sapiens
Details: not given

Row | Compound | IC50 [nM]
33 | NS(=O)(=O)c1ccc(Nc2nccc(Nc3ncc([N+](=O)[O-])s3)n2)cc1 | 14
34 | COc1ccc(Nc2nccc(Nc3nccs3)n2)cc1 | 1840
35 | CCOC(=O)CNc1ccnc(Nc2ccc(OC)cc2)n1 | 26100
36 | NS(=O)(=O)c1ccc(Nc2nccc(Nc3nc(C4CC4)cs3)n2)cc1 | 46
37 | CC(C)c1csc(Nc2nc(Nc3ccc(S(N)(=O)=O)cc3)ncc2F)n1 | 38
38 | Cc1cnc(Nc2ccc(S(N)(=O)=O)cc2)nc1Nc1nc(-c2ccc(F)cc2)cs1 | 89
39 | Cc1ncc(-c2ccnc(Nc3ccc(S(C)(=O)=O)cc3)n2)n1C(C)C [AZD-5438] | 18

Next, values leading:

Row | IC50 [nM] | Compound
40 | 46 | Cc1cnc(Nc2ccc(S(N)(=O)=O)cc2)nc1Nc1nc(C2CC2)cs1
41 | 11 | COc1cnc(Nc2ccc(S(N)(=O)=O)cc2)nc1Nc1nccs1
42 | 124 | NS(=O)(=O)c1ccc(Nc2nccc(Nc3nccs3)n2)cc1
43 | 470 | CS(=O)(=O)c1ccc(Nc2nccc(Nc3nccs3)n2)cc1
44 | 217 | NS(=O)(=O)c1ccc(Nc2ncc(F)c(Nc3nccs3)n2)cc1
45 | 294 | Cc1cnc(Nc2ccc(S(N)(=O)=O)cc2)nc1Nc1nc(C(C)C)cs1
46 | 51 | Cc1csc(Nc2nc(Nc3ccc(S(N)(=O)=O)cc3)ncc2C)n1
47 | 13 | Cc1cnc(Nc2ccc(S(C)(=O)=O)cc2)nc1Nc1nccs1

Test system: HCT-116
Test: Cytotoxicity against human HCT-116 cells assessed as cell growth inhibition incubated for 48 hrs by MTT assay
Assay type: functional, cell-based
Details: HCT-116, 48 h

Row | Compound | IC50 [nM]
48 | Cc1cnc(Nc2ccc(S(N)(=O)=O)cc2)nc1Nc1nc(C2CC2)cs1 | 6600
49 | NS(=O)(=O)c1ccc(Nc2nccc(Nc3ncc([N+](=O)[O-])s3)n2)cc1 | 8830
50 | COc1ccc(Nc2nccc(Nc3nccs3)n2)cc1 | 2230
51 | CCOC(=O)CNc1ccnc(Nc2ccc(OC)cc2)n1 | > 10000
52 | NS(=O)(=O)c1ccc(Nc2ncc(F)c(Nc3nc(-c4ccc(F)cc4)cs3)n2)cc1 | 5260
53 | NS(=O)(=O)c1ccc(Nc2ncc(F)c(Nc3nc(C4CC4)cs3)n2)cc1 | 7850
54 | COc1cnc(Nc2ccc(S(N)(=O)=O)cc2)nc1Nc1nccs1 | > 10000
55 | COCCNS(=O)(=O)c1ccc(Nc2ncc(C)c(Nc3nccs3)n2)cc1 | 7420
56 | CC(C)c1csc(Nc2ccnc(Nc3ccc(S(N)(=O)=O)cc3)n2)n1 | 7350
57 | NS(=O)(=O)c1ccc(Nc2nccc(Nc3nccs3)n2)cc1 | 1380
58 | NS(=O)(=O)c1ccc(Nc2nccc(Nc3nc(C4CC4)cs3)n2)cc1 | 3640
59 | CC(C)c1csc(Nc2nc(Nc3ccc(S(N)(=O)=O)cc3)ncc2F)n1 | 3870
60 | CS(=O)(=O)c1ccc(Nc2nccc(Nc3nccs3)n2)cc1 | 9510
61 | Cc1cnc(Nc2ccc(S(N)(=O)=O)cc2)nc1Nc1nc(-c2ccc(F)cc2)cs1 | 6050
62 | Cc1cnc(Nc2ccnc(Nc3ccc(S(N)(=O)=O)cc3)n2)s1 | 530
63 | NS(=O)(=O)c1ccc(Nc2ncc(F)c(Nc3nccs3)n2)cc1 | 4040
64 | Cc1ncc(-c2ccnc(Nc3ccc(S(C)(=O)=O)cc3)n2)n1C(C)C [AZD-5438] | 477
65 | Cc1cnc(Nc2ccc(S(N)(=O)=O)cc2)nc1Nc1nc(C(C)C)cs1 | 5820
66 | COC(=O)c1sc(Nc2nc(Nc3ccc(S(N)(=O)=O)cc3)ncc2C)nc1C | > 10000
67 | Cc1csc(Nc2nc(Nc3ccc(S(N)(=O)=O)cc3)ncc2C)n1 | 3210
68 | CCOC(=O)c1sc(Nc2nc(Nc3ccc(S(N)(=O)=O)cc3)ncc2F)nc1C | 9260
69 | Cc1cnc(Nc2nc(Nc3ccc(S(N)(=O)=O)cc3)ncc2F)s1 | 910
70 | NS(=O)(=O)c1ccc(Nc2nccc(Nc3nc(-c4ccc(F)cc4)cs3)n2)cc1 | 4400
71 | Cc1cnc(Nc2ccc(S(C)(=O)=O)cc2)nc1Nc1nccs1 | 6090

Biological target: not listed separately
Test: Inhibition of CDK1/cyclin B (unknown origin) using […] incubated for 40 mins in presence of ATP by Kinase-Glo assay
Set-up: species or system Homo sapiens
Details: not given

Row | IC50 [nM] | Compound
72 | > 30000 | CCOC(=O)CNc1ccnc(Nc2ccc(OC)cc2)n1

Biological target: Aurora kinase A (Homo sapiens) (UniProt O14965)
Test: Inhibition of Aurora A (unknown origin) at 1 uM relative to control
Details: not given

Aurora kinase A (Homo sapiens), sequence (O14965 whole entry): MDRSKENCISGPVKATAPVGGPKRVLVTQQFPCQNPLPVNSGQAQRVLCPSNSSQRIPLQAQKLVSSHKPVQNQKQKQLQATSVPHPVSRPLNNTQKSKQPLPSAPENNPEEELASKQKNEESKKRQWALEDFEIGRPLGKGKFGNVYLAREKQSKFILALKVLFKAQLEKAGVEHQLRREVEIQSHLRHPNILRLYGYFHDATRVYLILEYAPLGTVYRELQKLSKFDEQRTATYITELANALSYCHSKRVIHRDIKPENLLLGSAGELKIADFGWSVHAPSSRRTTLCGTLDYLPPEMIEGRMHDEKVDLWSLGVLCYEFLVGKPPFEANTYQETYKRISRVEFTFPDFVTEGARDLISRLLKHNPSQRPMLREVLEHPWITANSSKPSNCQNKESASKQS

Row | inhibition [%] | Compound
73 | > 50 | Cc1ncc(-c2ccnc(Nc3ccc(S(C)(=O)=O)cc3)n2)n1C(C)C [AZD-5438]

Biological target: Glycogen synthase kinase-3 alpha (Homo sapiens) (UniProt P49840)
Test: Inhibition of GSK3-alpha (unknown origin) at 1 uM relative to control
Details: not given

Glycogen synthase kinase-3 alpha (Homo sapiens), sequence (P49840 2-483 limits assumed): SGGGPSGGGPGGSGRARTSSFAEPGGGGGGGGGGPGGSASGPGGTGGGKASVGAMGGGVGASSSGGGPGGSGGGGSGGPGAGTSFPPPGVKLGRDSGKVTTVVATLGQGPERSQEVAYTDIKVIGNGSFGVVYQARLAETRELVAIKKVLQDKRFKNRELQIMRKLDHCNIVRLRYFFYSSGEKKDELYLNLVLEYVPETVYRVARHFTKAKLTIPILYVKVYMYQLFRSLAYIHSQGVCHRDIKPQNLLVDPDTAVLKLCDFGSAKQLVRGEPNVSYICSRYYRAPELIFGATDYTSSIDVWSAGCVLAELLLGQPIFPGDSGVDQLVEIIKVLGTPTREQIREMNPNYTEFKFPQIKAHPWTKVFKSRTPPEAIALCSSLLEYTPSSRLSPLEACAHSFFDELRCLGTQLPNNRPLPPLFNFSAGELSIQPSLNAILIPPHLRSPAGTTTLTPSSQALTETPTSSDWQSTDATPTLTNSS

Row | inhibition [%] | Compound
74 | > 50 | Cc1ncc(-c2ccnc(Nc3ccc(S(C)(=O)=O)cc3)n2)n1C(C)C [AZD-5438]

Species on record: Homo sapiens
Test: Inhibition of c-Src (unknown origin) at 1 uM relative to control
Details: not given

Row | inhibition [%] | Compound
75 | > 50 | Cc1ncc(-c2ccnc(Nc3ccc(S(C)(=O)=O)cc3)n2)n1C(C)C [AZD-5438]

Test system: MDA-MB-231
Test: Antiproliferative activity against human MDA-MB-231 cells assessed as cell growth inhibition incubated for 48 hrs by MTT assay
Assay type: functional, cell-based
Details: MDA-MB-231, 48 h

Row | IC50 [nM] | Compound
76 | 32600 | CCOC(=O)CNc1ccnc(Nc2ccc(OC)cc2)n1
77 | 151 | Cc1ncc(-c2ccnc(Nc3ccc(S(C)(=O)=O)cc3)n2)n1C(C)C [AZD-5438]

Test system: MCF7
Test: Antiproliferative activity against human MCF7 cells assessed as cell growth inhibition incubated for 48 hrs by MTT assay
Assay type: functional, cell-based
Details: MCF7, 48 h

Row | IC50 [nM] | Compound
78 | > 30000 | CCOC(=O)CNc1ccnc(Nc2ccc(OC)cc2)n1

Test system: HeLa
Test: Antiproliferative activity against human HeLa cells assessed as cell growth inhibition incubated for 48 hrs by MTT assay
Assay type: functional, cell-based
Details: not given

Row | IC50 [nM] | Compound
79 | 29300 | CCOC(=O)CNc1ccnc(Nc2ccc(OC)cc2)n1

Test system: HT-29
Test: Antiproliferative activity against human HT-29 cells assessed as cell growth inhibition incubated for 48 hrs by MTT assay
Assay type: functional, cell-based
Details: HT-29, 48 h

Row | IC50 [nM] | Compound
80 | > 30000 | CCOC(=O)CNc1ccnc(Nc2ccc(OC)cc2)n1
81 | 1160 | Cc1ncc(-c2ccnc(Nc3ccc(S(C)(=O)=O)cc3)n2)n1C(C)C [AZD-5438]

Test system: U-87 MG
Test: Antiproliferative activity against human U-87 MG cells assessed as cell growth inhibition incubated for 48 hrs by MTT assay
Assay type: functional, cell-based, U-87MG ATCC
Details: not given

Row | IC50 [nM] | Compound
82 | > 30000 | CCOC(=O)CNc1ccnc(Nc2ccc(OC)cc2)n1
83 | > 30000 | Cc1ncc(-c2ccnc(Nc3ccc(S(C)(=O)=O)cc3)n2)n1C(C)C [AZD-5438]

Test system: HepG2
Test: Antiproliferative activity against human HepG2 cells assessed as cell growth inhibition incubated for 48 hrs by MTT assay
Assay type: functional, cell-based
Details: HepG2, 48 h

Row | IC50 [nM] | Compound
84 | > 30000 | CCOC(=O)CNc1ccnc(Nc2ccc(OC)cc2)n1
85 | 12400 | Cc1ncc(-c2ccnc(Nc3ccc(S(C)(=O)=O)cc3)n2)n1C(C)C [AZD-5438]

Test system: MV4-11
Test: Antiproliferative activity against human MV4-11 cells assessed as cell growth inhibition incubated for 48 hrs by MTT assay
Assay type: functional, cell-based
Details: MV4-11, 48 h

Row | IC50 [nM] | Compound
86 | 28100 | CCOC(=O)CNc1ccnc(Nc2ccc(OC)cc2)n1
87 | 2080 | Cc1ncc(-c2ccnc(Nc3ccc(S(C)(=O)=O)cc3)n2)n1C(C)C [AZD-5438]

Test system: A549
Test: Antiproliferative activity against human A549 cells assessed as cell growth inhibition incubated for 48 hrs by MTT assay
Assay type: functional, cell-based
Details: A549, 48 h

Row | IC50 [nM] | Compound
88 | > 30000 | CCOC(=O)CNc1ccnc(Nc2ccc(OC)cc2)n1
89 | 1470 | Cc1ncc(-c2ccnc(Nc3ccc(S(C)(=O)=O)cc3)n2)n1C(C)C [AZD-5438]

Test system: A2780
Test: Antiproliferative activity against human A2780 cells assessed as cell growth inhibition incubated for 48 hrs by MTT assay
Assay type: functional, cell-based
Details: A2780, 48 h

Row | IC50 [nM] | Compound
90 | > 30000 | CCOC(=O)CNc1ccnc(Nc2ccc(OC)cc2)n1
91 | 1260 | Cc1ncc(-c2ccnc(Nc3ccc(S(C)(=O)=O)cc3)n2)n1C(C)C [AZD-5438]

Test system: not listed separately
Test: Antiproliferative activity against HEK293 cells assessed as cell growth inhibition incubated for 48 hrs by MTT assay
Assay type: toxicity, cell-based
Details: human

Row | Compound | IC50 at 48 h [nM]
92 | CCOC(=O)CNc1ccnc(Nc2ccc(OC)cc2)n1 | 126000
93 | Cc1ncc(-c2ccnc(Nc3ccc(S(C)(=O)=O)cc3)n2)n1C(C)C [AZD-5438] | 18000
